From ChEMBL document CHEMBL4732252, “Generating Selective Leads for Mer Kinase Inhibitors-Example of a Comprehensive Lead-Generation Strategy” (J Med Chem, 2021)
Converted amounts (≈) assume the structure as drawn.

Legend:
[1] = molecular target: T1, Tyrosine-protein kinase Mer (Homo sapiens, UniProt Q12866); assay: Inhibition of 6His/thrombin cleavage site-fused Avi-tagged dephosphorylated MER (unknown origin) (R528 to M999 residues) using Axltide (CKKSRGDYMTMQJG-acid) peptide as substrate preincubated for 30 mins followed by substrate and ATP addition at Km concentration measured after 120 mins by RapidFire LC-MS analysis
T1 sequence (Q12866 whole entry): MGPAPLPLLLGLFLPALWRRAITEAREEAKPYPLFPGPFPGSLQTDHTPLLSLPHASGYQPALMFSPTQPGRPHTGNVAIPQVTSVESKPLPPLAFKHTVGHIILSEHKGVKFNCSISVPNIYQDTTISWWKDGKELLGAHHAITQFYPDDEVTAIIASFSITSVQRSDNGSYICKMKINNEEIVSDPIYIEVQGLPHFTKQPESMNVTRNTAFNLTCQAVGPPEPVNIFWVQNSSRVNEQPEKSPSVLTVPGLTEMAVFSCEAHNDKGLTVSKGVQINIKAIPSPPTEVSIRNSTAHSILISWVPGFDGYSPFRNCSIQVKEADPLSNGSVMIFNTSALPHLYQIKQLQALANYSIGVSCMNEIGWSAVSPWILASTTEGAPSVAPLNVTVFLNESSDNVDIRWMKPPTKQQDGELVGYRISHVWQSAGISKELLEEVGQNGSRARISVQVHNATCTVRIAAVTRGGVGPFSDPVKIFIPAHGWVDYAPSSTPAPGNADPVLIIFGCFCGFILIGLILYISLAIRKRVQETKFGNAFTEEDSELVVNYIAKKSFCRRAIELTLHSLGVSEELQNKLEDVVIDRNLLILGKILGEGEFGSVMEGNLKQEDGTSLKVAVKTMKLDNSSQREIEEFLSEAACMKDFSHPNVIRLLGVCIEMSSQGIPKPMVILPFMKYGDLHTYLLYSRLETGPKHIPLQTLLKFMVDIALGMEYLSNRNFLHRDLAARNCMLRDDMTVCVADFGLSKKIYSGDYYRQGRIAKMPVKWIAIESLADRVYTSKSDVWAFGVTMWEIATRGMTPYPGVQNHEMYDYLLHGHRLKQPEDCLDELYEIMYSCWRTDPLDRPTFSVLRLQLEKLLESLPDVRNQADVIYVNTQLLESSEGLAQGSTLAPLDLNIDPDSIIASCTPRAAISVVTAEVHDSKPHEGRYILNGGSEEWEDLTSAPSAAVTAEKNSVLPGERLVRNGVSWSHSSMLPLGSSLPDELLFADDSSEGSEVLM

[2] = molecular target: T2, Receptor-type tyrosine-protein kinase FLT3 (Homo sapiens, UniProt P36888); assay: Inhibition of His6/TEV fused-GST-tagged Flt3 (unknown origin) (H564 to S993 residues) using Axltide (CKKSRGDYMTMQJ-acid) peptide as substrate preincubated for 30 mins followed by substrate and ATP addition at Km concentration measured after 75 mins by RapidFire LC-MS analysis
T2 sequence (P36888 whole entry): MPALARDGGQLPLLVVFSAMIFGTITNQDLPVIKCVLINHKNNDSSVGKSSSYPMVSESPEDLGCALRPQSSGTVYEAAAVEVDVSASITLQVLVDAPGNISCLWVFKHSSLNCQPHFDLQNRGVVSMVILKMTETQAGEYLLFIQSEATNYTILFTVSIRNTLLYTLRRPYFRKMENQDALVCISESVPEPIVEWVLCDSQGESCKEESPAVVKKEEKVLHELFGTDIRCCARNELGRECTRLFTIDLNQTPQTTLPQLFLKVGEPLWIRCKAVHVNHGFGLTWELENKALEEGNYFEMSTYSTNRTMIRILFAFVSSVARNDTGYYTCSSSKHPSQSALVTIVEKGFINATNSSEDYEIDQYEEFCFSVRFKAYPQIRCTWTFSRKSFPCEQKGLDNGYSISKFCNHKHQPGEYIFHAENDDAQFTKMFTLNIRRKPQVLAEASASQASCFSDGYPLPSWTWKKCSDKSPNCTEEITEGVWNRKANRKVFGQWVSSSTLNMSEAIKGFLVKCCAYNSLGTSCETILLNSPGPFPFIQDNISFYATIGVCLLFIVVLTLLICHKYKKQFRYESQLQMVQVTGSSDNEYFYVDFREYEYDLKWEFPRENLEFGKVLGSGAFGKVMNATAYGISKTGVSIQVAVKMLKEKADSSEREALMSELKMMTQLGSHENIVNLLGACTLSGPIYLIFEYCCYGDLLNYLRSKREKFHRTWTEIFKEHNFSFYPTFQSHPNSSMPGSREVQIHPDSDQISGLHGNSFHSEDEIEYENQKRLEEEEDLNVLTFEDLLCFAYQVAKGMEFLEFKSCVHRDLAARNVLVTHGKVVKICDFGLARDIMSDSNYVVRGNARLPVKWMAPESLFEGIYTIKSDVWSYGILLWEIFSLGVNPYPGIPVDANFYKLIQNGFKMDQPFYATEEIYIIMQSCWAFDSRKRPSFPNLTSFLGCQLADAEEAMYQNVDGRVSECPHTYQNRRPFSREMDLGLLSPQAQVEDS

[3] = Intrinsic clearance in rat hepatocytes assessed per 10^6 cells; type: ADME, cell-based, Hepatocyte; details: read-out: CLH
[4] = Distribution coefficient, logD of compound at pH 7.4; type: physicochemical; details: octanol/water
[5] = Intrinsic clearance in human liver microsomes; type: ADME, Microsome; details: read-out: CLH
[6] = Aqueous solubility of the compound; type: physicochemical

**Q.** With `CNC(=O)C[C@@H](NC(=O)[C@@H](CCc1ccccc1)NC(=O)c1c(C)noc1-c1snnc1C)c1ccc(C(F)(F)F)cc1` as the compound, how does the IC50 [1] read?
**A.** 5.01 nM

**Q.** And the IC50 [2]?
**A.** > 100000 nM

**Q.** What about the hepatocyte CLint [3] of the same compound?
**A.** 260 µL/min/1e6 cells

**Q.** And the logD [4]?
**A.** 4.2

**Q.** What about the microsomal CLint [5] of the same compound?
**A.** > 300 µL/min/mg

**Q.** What about the solubility [6] of the same compound?
**A.** < 0.2 µM

**Q.** What does the source list for `CCn1c(-c2nnc(N(C)Cc3ccc4nccn4c3)o2)nc2ccccc21`?
**A.** IC50 [1]: 631 nM; IC50 [2]: 6310 nM; hepatocyte CLint [3]: 22 µL/min/1e6 cells; logD [4]: 3; microsomal CLint [5]: 55 µL/min/mg; solubility [6]: 120 µM (≈ 44.8 µg/mL)

**Q.** With `Cc1c(C(=O)Nc2ccc(Oc3ccnc4[nH]cc(-c5ccccc5)c34)c(F)c2)c(=O)n(-c2ccc(F)cc2)n1C` as the compound, how does the IC50 [1] read?
**A.** 1.58 nM

**Q.** What about the IC50 [2] of the same compound?
**A.** 63.1 nM

**Q.** And the hepatocyte CLint [3]?
**A.** 210 µL/min/1e6 cells

**Q.** And the logD [4]?
**A.** > 5

**Q.** What about the microsomal CLint [5] of the same compound?
**A.** 16 µL/min/mg

**Q.** And the solubility [6]?
**A.** 0.01 µM (≈ 0.00552 µg/mL)

**Q.** Which results are given for `CNC(=O)c1sc(N2CC3CC2(CNC(=O)c2c[nH]c4ncc(C)cc24)C3)nc1C(F)(F)F`?
**A.** IC50 [1]: 12.6 nM; IC50 [2]: 1580 nM; hepatocyte CLint [3]: 92 µL/min/1e6 cells; logD [4]: 3.5; microsomal CLint [5]: > 270 µL/min/mg; solubility [6]: < 1.6 µM

**Q.** With `CNc1nc(OCC2CCC2)nc2c1ncn2Cc1c(F)cccc1F` as the compound, how does the IC50 [1] read?
**A.** 50.1 nM

**Q.** What about the IC50 [2] of the same compound?
**A.** > 50100 nM

**Q.** And the hepatocyte CLint [3]?
**A.** 160 µL/min/1e6 cells

**Q.** What about the logD [4] of the same compound?
**A.** 4.4

**Q.** What about the microsomal CLint [5] of the same compound?
**A.** > 270 µL/min/mg

**Q.** What about the solubility [6] of the same compound?
**A.** 4 µM (≈ 1.44 µg/mL)

**Q.** Which results are given for `COc1cc2ncnc(Nc3cnc(OCCC4CC4)nc3)c2cc1OCC1CCNCC1`?
**A.** IC50 [1]: 251 nM; IC50 [2]: > 50100 nM; hepatocyte CLint [3]: 3 µL/min/1e6 cells; logD [4]: 1.4; microsomal CLint [5]: < 3 µL/min/mg; solubility [6]: 260 µM (≈ 117 µg/mL)

**Q.** Which results are given for `CNC(=O)c1sc(N2CC3CC2(CNC(=O)c2c[nH]c4ncc(C(F)(F)F)cc24)C3)nc1C(F)(F)F`?
**A.** IC50 [1]: 63.1 nM; IC50 [2]: > 100000 nM; hepatocyte CLint [3]: 78 µL/min/1e6 cells; logD [4]: 4.2; microsomal CLint [5]: 130 µL/min/mg; solubility [6]: < 1.6 µM

**Q.** What does the source list for `O=S(=O)(c1ccc(Nc2ncc(N3CCOCC3)c(Nc3ccccc3)n2)cc1)N1CCCCC1`?
**A.** IC50 [1]: 50.1 nM; IC50 [2]: > 39800 nM; hepatocyte CLint [3]: 88 µL/min/1e6 cells; logD [4]: 4.5; microsomal CLint [5]: 190 µL/min/mg; solubility [6]: 0.6 µM (≈ 0.297 µg/mL)

**Q.** With `CN(Cc1ccc2c(c1)CCCO2)c1nnc(-c2ccc(-c3ccccc3Cl)cc2)o1` as the compound, how does the IC50 [1] read?
**A.** 25.1 nM

**Q.** And the IC50 [2]?
**A.** > 100000 nM

**Q.** What about the hepatocyte CLint [3] of the same compound?
**A.** 19 µL/min/1e6 cells

**Q.** What about the logD [4] of the same compound?
**A.** > 5.6

**Q.** And the microsomal CLint [5]?
**A.** 19 µL/min/mg

**Q.** And the solubility [6]?
**A.** 0.1 µM (≈ 0.0432 µg/mL)

**Q.** Which results are given for `CNC(=O)c1sc(N2CC3CC2(CNC(=O)c2c[nH]c4ncc(Cl)cc24)C3)nc1C(F)(F)F`?
**A.** IC50 [1]: 25.1 nM; IC50 [2]: 1580 nM; hepatocyte CLint [3]: 120 µL/min/1e6 cells; logD [4]: 4; microsomal CLint [5]: > 300 µL/min/mg; solubility [6]: 2 µM (≈ 0.998 µg/mL)

**Q.** What does the source list for `CN(Cc1ccc2nccn2c1)c1nnc(-c2ccc(-c3ccccc3Cl)cc2)o1`?
**A.** IC50 [1]: 5.01 nM; IC50 [2]: 15800 nM; hepatocyte CLint [3]: 21 µL/min/1e6 cells; logD [4]: 4.8; microsomal CLint [5]: 46 µL/min/mg; solubility [6]: 1.1 µM (≈ 0.457 µg/mL)

**Q.** For `CNC(=O)c1sc(N2CC3CC2(CNC(=O)c2c[nH]c4ncccc24)C3)nc1C(F)(F)F`, which IC50 [1] is on record?
**A.** 25.1 nM

**Q.** What about the IC50 [2] of the same compound?
**A.** 5010 nM

**Q.** And the hepatocyte CLint [3]?
**A.** 33 µL/min/1e6 cells

**Q.** What about the logD [4] of the same compound?
**A.** 3.1

**Q.** What about the microsomal CLint [5] of the same compound?
**A.** 200 µL/min/mg

**Q.** What about the solubility [6] of the same compound?
**A.** < 1.6 µM

**Q.** What does the source list for `CN(Cc1ccc2nccn2c1)c1nnc(-c2ccc(OC3CCCC3)cc2)o1`?
**A.** IC50 [1]: 100 nM; IC50 [2]: 20000 nM; hepatocyte CLint [3]: 52 µL/min/1e6 cells; logD [4]: 4.1; microsomal CLint [5]: 150 µL/min/mg; solubility [6]: 33 µM (≈ 12.9 µg/mL)

**Q.** What does the source list for `CN(Cc1ccc2nccn2c1)c1nnc(-c2ccc(-c3ccccc3Cl)nc2)o1`?
**A.** IC50 [1]: 126 nM; IC50 [2]: 15800 nM; hepatocyte CLint [3]: 16 µL/min/1e6 cells; logD [4]: 3.3; microsomal CLint [5]: 92 µL/min/mg; solubility [6]: 10 µM (≈ 4.17 µg/mL)

**Q.** What does the source list for `C[C@@H]1CN(c2cnc(Nc3cc(F)c(OCC4CC4)c(F)c3)nc2NC2CCOCC2)CCN1`?
**A.** IC50 [1]: 50.1 nM; IC50 [2]: 10000 nM; hepatocyte CLint [3]: < 2.4 µL/min/1e6 cells; logD [4]: 3.2; microsomal CLint [5]: < 3 µL/min/mg; solubility [6]: 400 µM (≈ 190 µg/mL)

**Q.** For `Cc1cc(N(C)C)ccc1-c1nnc(N(C)Cc2ccc3nccn3c2)o1`, which IC50 [1] is on record?
**A.** 631 nM

**Q.** And the IC50 [2]?
**A.** 31600 nM

**Q.** What about the hepatocyte CLint [3] of the same compound?
**A.** 44 µL/min/1e6 cells

**Q.** What about the logD [4] of the same compound?
**A.** 3.2

**Q.** What about the microsomal CLint [5] of the same compound?
**A.** 55 µL/min/mg

**Q.** What about the solubility [6] of the same compound?
**A.** 23 µM (≈ 8.34 µg/mL)

**Q.** Which results are given for `CN(Cc1ccc2nccn2c1)c1nnc(-c2ncc(C(F)(F)F)cc2Cl)o1`?
**A.** IC50 [1]: 794 nM; IC50 [2]: > 100000 nM; hepatocyte CLint [3]: 6 µL/min/1e6 cells; logD [4]: 2.6; microsomal CLint [5]: 11 µL/min/mg; solubility [6]: 301 µM (≈ 123 µg/mL)
